According to ChEMBL document CHEMBL4196088, “Induction of cell killing and autophagy by amphiphilic pyrrolidine derivatives on human pancreatic cancer cells” (Eur J Med Chem, 2018):
Each block holds one compound with its values, some of them ahead of it. The source made the active and inactive calls. No cut-off for these calls is given here.

How the values were obtained:
BXPC-3 [1] = test: Growth inhibition of human BxPC3 cells after 72 hrs by XTT assay; assay type: functional, cell-based; settings: BXPC-3, 72 h
PANC-1 [2] = test: Growth inhibition of human PANC1 cells after 72 hrs by XTT assay; assay type: functional, cell-based; settings: PANC-1, 72 h
PANC-1 [3] = test: Induction of apoptosis in human PANC1 cells assessed as accumulation at sub-G0/G1 phase at 20 uM after 24 hrs by propidium iodide staining based flow cytometry (reference value: 0.6 to 0.7%); assay type: functional
PANC-1 [4] = test: Induction of apoptosis in human PANC1 cells assessed as accumulation at sub-G0/G1 phase at 20 uM after 48 hrs by propidium iodide staining based flow cytometry (reference value: 0.2 to 2.9%); assay type: functional
PANC-1 [5] = test: Induction of apoptosis in human PANC1 cells assessed as accumulation at sub-G0/G1 phase at 20 uM after 72 hrs by propidium iodide staining based flow cytometry (reference value: 1.6 to 3.2%); assay type: functional
PANC-1 [6] = test: Induction of apoptosis in human PANC1 cells assessed as accumulation at sub-G0/G1 phase at 10 uM after 24 hrs by propidium iodide staining based flow cytometry (reference value: 0.6 to 0.7%); assay type: functional
PANC-1 [7] = test: Induction of apoptosis in human PANC1 cells assessed as accumulation at sub-G0/G1 phase at 10 uM after 48 hrs by propidium iodide staining based flow cytometry (reference value: 0.2 to 2.9%); assay type: functional
PANC-1 [8] = test: Induction of apoptosis in human PANC1 cells assessed as accumulation at sub-G0/G1 phase at 10 uM after 72 hrs by propidium iodide staining based flow cytometry (reference value: 1.6 to 3.2%); assay type: functional
[9] = Induction of apoptosis in HPNE cells at 5 to 40 uM after 24 to 72 hrs by Annexin V/7-AAD staining based flow cytometry; assay type: cell-based; settings: human
Fibroblast [10] = test: Induction of apoptosis in human primary fibroblasts at 5 to 40 uM after 24 to 72 hrs by Annexin V/7-AAD staining based flow cytometry; assay type: cell-based
PK9 [11] = test: Induction of apoptosis in human PK9 cells at 5 to 40 uM after 24 to 72 hrs by Annexin V/7-AAD staining based flow cytometry; assay type: functional, cell-based
HeLa = test: Growth inhibition of human HeLa cells after 72 hrs; assay type: functional, cell-based
BXPC-3 [12] = test: Induction of apoptosis in human BxPC3 cells assessed as accumulation at sub-G0/G1 phase at 20 uM after 24 hrs by propidium iodide staining based flow cytometry (reference value: 2.3%); assay type: functional
BXPC-3 [13] = test: Induction of apoptosis in human BxPC3 cells assessed as accumulation at sub-G0/G1 phase at 20 uM after 48 hrs by propidium iodide staining based flow cytometry (reference value: 2.8%); assay type: functional
BXPC-3 [14] = test: Induction of apoptosis in human BxPC3 cells assessed as accumulation at sub-G0/G1 phase at 20 uM after 72 hrs by propidium iodide staining based flow cytometry (reference value: 3.4%); assay type: functional
BXPC-3 [15] = test: Induction of apoptosis in human BxPC3 cells assessed as accumulation at sub-G0/G1 phase harboring pSFFV-Bcl-XL at 20 uM after 24 hrs by propidium iodide staining based flow cytometry (reference value: 1.2%); assay type: functional
BXPC-3 [16] = test: Induction of apoptosis in human BxPC3 cells assessed as accumulation at sub-G0/G1 phase harboring pSFFV-Bcl-XL at 20 uM after 48 hrs by propidium iodide staining based flow cytometry (reference value: 1.3%); assay type: functional
BXPC-3 [17] = test: Induction of apoptosis in human BxPC3 cells assessed as accumulation at sub-G0/G1 phase harboring pSFFV-Bcl-XL at 20 uM after 72 hrs by propidium iodide staining based flow cytometry (reference value: 1.3%); assay type: functional
PK9 [18] = test: Induction of apoptosis in human PK9 cells assessed as accumulation at sub-G0/G1 phase at 20 uM after 24 hrs by propidium iodide staining based flow cytometry (reference value: 2.2%); assay type: functional
PK9 [19] = test: Induction of apoptosis in human PK9 cells assessed as accumulation at sub-G0/G1 phase at 20 uM after 48 hrs by propidium iodide staining based flow cytometry (reference value: 3.8%); assay type: functional
PK9 [20] = test: Induction of apoptosis in human PK9 cells assessed as accumulation at sub-G0/G1 phase at 20 uM after 72 hrs by propidium iodide staining based flow cytometry (reference value: 4%); assay type: functional
Fibroblast [21] = test: Induction of apoptosis in human primary fibroblasts at 20 uM after 24 hrs by propidium iodide staining based flow cytometry (reference value: 4.8%); assay type: cell-based
Fibroblast [22] = test: Induction of apoptosis in human primary fibroblasts at 20 uM after 48 hrs by propidium iodide staining based flow cytometry (reference value: 6.1%); assay type: cell-based
Fibroblast [23] = test: Induction of apoptosis in human primary fibroblasts at 20 uM after 72 hrs by propidium iodide staining based flow cytometry (reference value: 6.7%); assay type: cell-based
[24] = Induction of apoptosis in HPNE cells assessed as accumulation at sub-G0/G1 phase at 20 uM after 24 hrs by propidium iodide staining based flow cytometry (reference value: 0.6%); assay type: cell-based; settings: human
[25] = Induction of apoptosis in HPNE cells assessed as accumulation at sub-G0/G1 phase at 20 uM after 48 hrs by propidium iodide staining based flow cytometry (reference value: 0.7%); assay type: cell-based; settings: human
[26] = Induction of apoptosis in HPNE cells assessed as accumulation at sub-G0/G1 phase at 20 uM after 72 hrs by propidium iodide staining based flow cytometry (reference value: 6.6%); assay type: cell-based; settings: human
BXPC-3 [27] = test: Induction of apoptosis in human BxPC3 cells assessed as accumulation at sub-G0/G1 phase at 10 uM after 24 hrs by propidium iodide staining based flow cytometry (reference value: 1.8%); assay type: functional
BXPC-3 [28] = test: Induction of apoptosis in human BxPC3 cells assessed as accumulation at sub-G0/G1 phase at 10 uM after 48 hrs by propidium iodide staining based flow cytometry (reference value: 2.8%); assay type: functional
BXPC-3 [29] = test: Induction of apoptosis in human BxPC3 cells assessed as accumulation at sub-G0/G1 phase at 10 uM after 72 hrs by propidium iodide staining based flow cytometry (reference value: 3.4%); assay type: functional
BXPC-3 [30] = test: Induction of apoptosis in human BxPC3 cells harboring pSFFV-Bcl-XL assessed as accumulation at sub-G0/G1 phase at 10 uM after 24 hrs by propidium iodide staining based flow cytometry (reference value: 1.5%); assay type: functional
BXPC-3 [31] = test: Induction of apoptosis in human BxPC3 cells harboring pSFFV-Bcl-XL assessed as accumulation at sub-G0/G1 phase at 10 uM after 48 hrs by propidium iodide staining based flow cytometry (reference value: 1.9%); assay type: functional
BXPC-3 [32] = test: Induction of apoptosis in human BxPC3 cells harboring pSFFV-Bcl-XL assessed as accumulation at sub-G0/G1 phase at 10 uM after 72 hrs by propidium iodide staining based flow cytometry (reference value: 2%); assay type: functional
PK9 [33] = test: Induction of apoptosis in human PK9 cells assessed as accumulation at sub-G0/G1 phase at 10 uM after 24 hrs by propidium iodide staining based flow cytometry (reference value: 2.2%); assay type: functional
PK9 [34] = test: Induction of apoptosis in human PK9 cells assessed as accumulation at sub-G0/G1 phase at 10 uM after 48 hrs by propidium iodide staining based flow cytometry (reference value: 3.8%); assay type: functional
PK9 [35] = test: Induction of apoptosis in human PK9 cells assessed as accumulation at sub-G0/G1 phase at 10 uM after 72 hrs by propidium iodide staining based flow cytometry (reference value: 4%); assay type: functional
Fibroblast [36] = test: Induction of apoptosis in human primary fibroblasts assessed as accumulation at sub-G0/G1 phase at 10 uM after 24 hrs by propidium iodide staining based flow cytometry (reference value: 4.8%); assay type: cell-based
Fibroblast [37] = test: Induction of apoptosis in human primary fibroblasts assessed as accumulation at sub-G0/G1 phase at 10 uM after 48 hrs by propidium iodide staining based flow cytometry (reference value: 6.1%); assay type: cell-based
Fibroblast [38] = test: Induction of apoptosis in human primary fibroblasts assessed as accumulation at sub-G0/G1 phase at 10 uM after 72 hrs by propidium iodide staining based flow cytometry (reference value: 6.7%); assay type: cell-based
[39] = Induction of apoptosis in HPNE cells assessed as accumulation at sub-G0/G1 phase at 10 uM after 24 hrs by propidium iodide staining based flow cytometry (reference value: 0.6%); assay type: cell-based; settings: human
[40] = Induction of apoptosis in HPNE cells assessed as accumulation at sub-G0/G1 phase at 10 uM after 48 hrs by propidium iodide staining based flow cytometry (reference value: 0.7%); assay type: cell-based; settings: human
[41] = Induction of apoptosis in HPNE cells assessed as accumulation at sub-G0/G1 phase at 10 uM after 72 hrs by propidium iodide staining based flow cytometry (reference value: 6.6%); assay type: cell-based; settings: human
SK-BR-3 = test: Growth inhibition of human SKBR3 cells after 72 hrs; assay type: functional, cell-based; settings: SK-BR-3, 72 h
MIA PaCa-2 = test: Growth inhibition of human MIAPaCa2 cells after 72 hrs by MTT assay; assay type: functional, cell-based; settings: MIA PaCa-2, 72 h
PK9 [42] = test: Growth inhibition of human PK9 cells after 72 hrs by MTT assay; assay type: functional, cell-based; settings: PK9, 72 h

IC50 (BXPC-3 [1]): 6 µM | IC50 (PANC-1 [2]): 5.7 µM
SMILES: Cl.NCC(=O)N1CCC[C@H]1COCCCCCC/C=C/c1ccc(-c2ccccc2)cc1
Activity (PANC-1 [3]): 1.5% | Activity (PANC-1 [4]): 6.3% | Activity (PANC-1 [5]): 24.7% | Activity (PANC-1 [6]): 0.9% | Activity (PANC-1 [7]): 6.1% | Activity (PANC-1 [8]): 9.5% | Activity [9]: Toxic | Activity (Fibroblast [10]): Toxic | Activity (PK9 [11]): Active

IC50 (HeLa): 4 µM
SMILES: Cl.O[C@H]1CN[C@H](COCCCCCCCCC/C=C/c2ccc(-c3ccccc3)cc2)C1
Activity (BXPC-3 [12]): 12.7% | Activity (BXPC-3 [13]): 59.3% | Activity (BXPC-3 [14]): 72% | Activity (BXPC-3 [15]): 7.3% | Activity (BXPC-3 [16]): 11.4% | Activity (BXPC-3 [17]): 49.7% | Activity (PANC-1 [3]): 17.6% | Activity (PANC-1 [4]): 38% | Activity (PANC-1 [5]): 66.2% | Activity (PK9 [18]): 35.1% | Activity (PK9 [19]): 77.4% | Activity (PK9 [20]): 84.9% | Activity (Fibroblast [21]): 17.2% | Activity (Fibroblast [22]): 21.7% | Activity (Fibroblast [23]): 33.7% | Activity [24]: 83.1% | Activity [25]: 93.5% | Activity [26]: 98.3% | Activity (PANC-1 [6]): 8.8% | Activity (PANC-1 [7]): 23.2% | Activity (PANC-1 [8]): 56.2% | Activity (BXPC-3 [27]): 22.1% | Activity (BXPC-3 [28]): 34.6% | Activity (BXPC-3 [29]): 59.3% | Activity (BXPC-3 [30]): 2.6% | Activity (BXPC-3 [31]): 10% | Activity (BXPC-3 [32]): 15.7% | Activity (PK9 [33]): 9.6% | Activity (PK9 [34]): 30.4% | Activity (PK9 [35]): 39.4% | Activity (Fibroblast [36]): 9.5% | Activity (Fibroblast [37]): 11.7% | Activity (Fibroblast [38]): 22.1% | Activity [39]: 80.6% | Activity [40]: 83.5% | Activity [41]: 93.4%

IC50 (SK-BR-3): 10 µM
SMILES: CCCCCCCC/C=C\CCCCCCCCNC[C@H]1NC[C@H](O)[C@@H]1O

IC50 (SK-BR-3): 10 µM | IC50 (BXPC-3 [1]): > 100 µM | IC50 (PANC-1 [2]): 80 µM | IC50 (MIA PaCa-2): > 100 µM
SMILES: CCCCCC/C=C/CCCCCCCCOC[C@H]1NC[C@H](O)[C@@H]1O
IC50 (PK9 [42]): > 100 µM | Activity (BXPC-3 [12]): 9.5% | Activity (BXPC-3 [13]): 19.6% | Activity (BXPC-3 [14]): 21.5% | Activity (BXPC-3 [15]): 4.9% | Activity (BXPC-3 [16]): 5% | Activity (BXPC-3 [17]): 3.8% | Activity (PANC-1 [3]): 7.9% | Activity (PANC-1 [4]): 23.4% | Activity (PANC-1 [5]): 33.7% | Activity (PK9 [18]): 2.2% | Activity (PK9 [19]): 4.3% | Activity (PK9 [20]): 5.7% | Activity [24]: 46.9% | Activity [25]: 65.7% | Activity [26]: 70.3% | Activity (PANC-1 [6]): 5.7% | Activity (PANC-1 [7]): 9.1% | Activity (PANC-1 [8]): 6.4% | Activity (BXPC-3 [27]): 5.3% | Activity (BXPC-3 [28]): 7.3% | Activity (BXPC-3 [29]): 7.8% | Activity (BXPC-3 [30]): 4.3% | Activity (BXPC-3 [31]): 1.9% | Activity (BXPC-3 [32]): 3.8% | Activity (PK9 [33]): 3.4% | Activity (PK9 [34]): 3.8% | Activity (PK9 [35]): 2.7% | Activity [39]: 3.4% | Activity [40]: 2% | Activity [41]: 2.5%
